Laboratory results as given in patent US20260174778A1, “SULFONAMIDE COMPOUND, AND PREPARATION METHOD THEREFOR AND USE THEREOF” (SHANGHAI HENLIUS BIOTECH, INC., priority 2023, published 2026).
Read-outs that look alike come from different tables or passages of the source.

Legend:
[1] = test system: breast cancer cell line ZR-75-1; assay: Inhibition of proliferation of breast cancer cell line ZR-75-1 (CellTiter-Glo); format: cell-based; settings: Homo sapiens, 240 h, proliferation of ZR-75-1 cells, 10 days of incubation, read-out: IC50 (KAT6A)
From the text: Test Example 1: Experiment for Determining Inhibitory Effects of Compounds on Proliferation of Breast Cancer Cell Line ZR-75-1
ATP is an indicator of the metabolism of living cells. The CellTiter-Glo® Luminescent Cell Viability Assay is a homogeneous assay method for determining the number of viable cells by quantifying ATP.
• 1) ZR-75-1 (Cell Bank of Chinese Academy of Sciences, TCHul26) • 2) RPMI-1640 medium (Gibco, 11875-093) • 3) Fetal Bovine Serum, New Zealand (Gibco,10091-148) • 4) Penicillin-streptomycin (10,000 U/mL) (Gibco, 15140-122) • 5) Trypsin-EDTA (0.25%), containing phenol red (Gibco, 25200-072) • 6) DPBS (Shanghai BasalMedia, B210KJ) • 7) Corning® 96-well Clear Flat Bottom Ultra-Low Attachment Microplate (Corning, Cat. No. 3474) • 8) 330 μL 96 Holes Deep Well Plate, transparents, 96 Round Holes, V-shaped Bottom, Low Retention (Stellar Scientific, DP33VR-9-NS) • 9) Corning® 96-well solid white flat-bottom polystyrene microplate (Corning, Cat. No. 3917) • 10) CellTiter-Glo® Luminescent Cell Viability Assay (Promega, G7573) • 11) Countstar® BioMed automatic cell counter • 12) Trypan blue solution, 0.4% (Gibco, Cat. No. 15250061) • 13) 37° C. constant-temperature incubator (Thermo, FORMA STERI-CYCLE i160 LK) • 14) Biosafety cabinet (Thermo, 1379)
• 1) The formula of the complete medium for ZR-75-1 was as follows: 500 mL RPMI-1640+10% FBS+1% penicillin-streptomycin. • 2) Thirty minutes before cell plating, the complete medium, serum, trypsin, and DPBS for use in ZR-75-1 cell culture were pre-warmed in a water bath at 37° C. • 3) The ZR-75-1 cells were taken out of the incubator, and the medium was removed by pipetting. The cells were rinsed once with 5 mL of DPBS, and then the DPBS was discarded. • 4) The cells in the T75 culture flask were digested with 1-3 mL of (0.25%) trypsin-EDTA. After the trypsin was added, the culture flask was incubated in an incubator at 37° C. for 2-5 min, and dispersion was confirmed by microscopic examination. Tapping or agitating the culture flask was avoided to prevent disturbing the cells, which might cause cell clumping. • 5) 9 mL of the complete medium was added to terminate the digestion, thus forming a cell suspension, which was then mixed well by pipetting. • 6) Cell suspension counting: 20 μL of the cell suspension was pipetted and diluted with 20 µL of the 0.4% trypan blue solution (Gibco, Cat. No. 15250061). The total cell count and the percentage of cell viability were determined using the Countstar® BioMed automatic cell counter. Only cells with a cell viability of no less than 95% were used for the experiment. • 7) The concentration of the cell suspension was adjusted to 2000 cells/well, and the cell suspension was added to a 96-well cell culture plate at 80 μL/well. Treatment of Cells with Compounds • 1) Twenty-four hours after cell plating, the cell plate was taken out. • 2) Each compound was prepared with a complete medium. The stock solution was a 10 mM solution in DMSO, which was first diluted with the medium to 100 μM, then diluted to 1 μM, and finally subjected to a 5-fold serial dilution across a total of 9 concentration gradients. • 3) 20 μL of the compound diluted with the medium was added to each well of the cell culture plate, which already contained 80 μL of the medium. The final concentration started at 200 nM, followed by a 5-fold serial dilution across a total of 9 concentration gradients. Two replicate wells were set for each compound, and each plate could be used to test 3 compounds, with the DMSO content controlled within 0.5%. • 4) The culture medium was replenished once every three days with a complete medium containing the same concentration of the test compound, with 20 μL/well added each time.
After 10 days of incubation with the compound, the cell culture plate was taken out, and the CellTiter-Glo® reagent was added at 50 μL/well. […]

[2] = Pharmacokinetics in SD (Sprague Dawley) rats; format: in vivo; settings: rat, plasma, female SD rats; for half-life: read-out: T1/2 (half-life) (converted)
Description: Test Example 3: Determination of Pharmacokinetic Data of Compounds in SD (Sprague Dawley) Rats
The pharmacokinetic characteristics of some of the compounds of the present disclosure were evaluated by a pharmacokinetic experiment in SD rats.
Female SD rats aged 6-8 weeks from Shanghai Jihui Laboratory Animal Care Co., Ltd. were selected. The test animals were fasted overnight before administration, and feeding was resumed 4 h after administration. The compounds were dissolved in 5% DMSO+5% Tween 80+90% normal saline. For a single intravenous administration, the administration dose was 1 mg/kg, and the administration volume was 2 mL/kg. For a single intragastric administration, the administration dose was 2 mg/kg, and the administration volume was 10 mL/kg. Blood was collected at 0.083 h (for intravenous administration only), 0.25 h, 0.5 h, 1 h, 2 h, 4 h, 8 h, and 24 h after administration. At each indicated time point, about 150 μL of blood sample was collected from each rat via the vein and placed into an EDTA-K2 tube. Each sample was centrifuged (2000 g, 4° C., 5 min) within 15 min after sample collection to obtain plasma, which was then stored at −70° C. until analysis. The concentration of the corresponding test compound in the SD rat plasma was determined using UPLC-MS/MS.

Row | SMILES | IC50 [1] [nM] | further results
1 | COc1ccc2c(c1S(=O)(=O)Nc1noc3cc(Cn4cccn4)cc(OC)c13)OCCC2(F)F [Compound 102, N-(6-((1H-Pyrazol-1-yl)methyl)-4-methoxybenzo[d]isoxazol-3-yl)-4,4-difluoro-7-methoxychromane-8-sulfonamide] | 0.5 to 2 | –
2 | COc1cc(Cn2cccn2)cc2onc(NS(=O)(=O)c3c(F)ccc4c3OCCC4(F)F)c12 [Compound 103, N-(6-((1H-Pyrazol-1-yl)methyl)-4-methoxybenzo[d]isoxazol-3-yl)-4,4,7-trifluorochromane-8-sulfonamide] | 10 to 50 | –
3 | COc1c(F)c(Cn2cccn2)cc2onc(NS(=O)(=O)c3ccccc3OC3CCC3)c12 [Compound 108, N-(6-((1H-Pyrazol-1-yl)methyl)-5-fluoro-4-methoxybenzo[d]isoxazol-3-yl)-2-cyclobutoxybenzenesulfonamide] | 0.5 to 2 | –
4 | COc1ccc2c(c1S(=O)(=O)Nc1noc3cc(Cn4cccn4)c(F)c(OC)c13)OCCN2Cc1ccccc1 [Compound 112, N-(6-((1H-Pyrazol-1-yl)methyl)-5-fluoro-4-methoxybenzo[d]isoxazol-3-yl)-4-benzyl-7-methoxy-3,4-dihydro-2H-benzo[b][1,4]oxazine-8-sulfonamide] | 2 to 10 | –
5 | COc1ccc2c(c1S(=O)(=O)Nc1noc3cc(Cn4cccn4)c(F)c(OC)c13)OCCN2CC(F)(F)F [Compound 120, N-(6-((1H-Pyrazol-1-yl)methyl)-5-fluoro-4-methoxybenzo[d]isoxazol-3-yl)-7-methoxy-4-(2,2,2-trifluoroethyl)-3,4-dihydro-2/-benzo[b][1,4]oxazine-8-sulfonamide] | 2 to 10 | –
6 | COc1cccc(OC)c1S(=O)(=O)Nc1noc2cc(Cn3cccn3)c(F)c(OC)c12 [PF-0128, reference compound] | 0.5 to 2 | –
7 | COc1cccc(OC)c1S(=O)(=O)Nc1noc2cc(Cn3cccn3)cc(OC)c12 [PF-9363, reference compound] | 0.5 to 2 | –

Second part, led by results:

Row | IC50 [1] [nM] | SMILES | further results
8 | 0.5 to 2 | COc1ccc2c(c1S(=O)(=O)Nc1noc3cc(Cn4cccn4)c(F)c(OC)c13)OCCC21CCC1 [Compound 72, N-(6-((1H-Pyrazol-1-yl)methyl)-5-fluoro-4-methoxybenzo[d]isoxazol-3-yl)-7-methoxyspiro[chromane-4,1′-cyclobutane]-8-sulfonamide] | –
9 | 0.5 to 2 | COc1ccc2c(c1S(=O)(=O)Nc1noc3cc(Cn4cccn4)c(F)c(OC)c13)OCCC21CCCC1 [Compound 73, N-(6-((1H-Pyrazol-1-yl)methyl)-5-fluoro-4-methoxybenzo[d]isoxazol-3-yl)-7-methoxyspiro[chromane-4,1′-cyclopentane]-8-sulfonamide] | –
10 | < 0.5 | COc1ccc2c(c1S(=O)(=O)Nc1noc3cc(Cn4cccn4)c(F)c(OC)c13)OCCC2(F)F [Compound 104, N-(6-((1H-Pyrazol-1-yl)methyl)-5-fluoro-4-methoxybenzo[d]isoxazol-3-yl)-4,4-difluoro-7-methoxychromane-8-sulfonamide] | AUC(0-inf) ([2]; iv, i.v. 1 mg/kg): 4200 ng·h/mL; clearance ([2]; iv, i.v. 1 mg/kg, read-out: CL (clearance rate)): 3.98 mL/min/kg; half-life ([2]; iv, i.v. 1 mg/kg): 2.83 h; Vd ([2]; iv, i.v. 1 mg/kg, read-out: Vdss (apparent volume of distribution)): 0.705 L/kg; AUC(0-inf) ([2]; po, p.o. 2 mg/kg): 6110 ng·h/mL; bioavailability ([2]; po, p.o. 2 mg/kg, read-out: F (bioavailability)): 72.7%; half-life ([2]; po, p.o. 2 mg/kg): 2.13 h
11 | 10 to 50 | COc1c(F)c(Cn2cccn2)cc2onc(NS(=O)(=O)c3c(F)ccc4c3OCCC4(F)F)c12 [Compound 105, N-(6-((1H-Pyrazol-1-yl)methyl)-5-fluoro-4-methoxybenzo[d]isoxazol-3-yl)-4,4,7-trifluorochromane-8-sulfonamide] | –
12 | < 0.5 | COc1ccc2c(c1S(=O)(=O)Nc1noc3cc(Cn4cccn4)c(F)c(OC)c13)OCC=C2C [Compound 106, N-(6-((1H-Pyrazol-1-yl)methyl)-5-fluoro-4-methoxybenzo[d]isoxazol-3-yl)-7-methoxy-4-methyl-2H-chromene-8-sulfonamide] | –
13 | 0.5 to 2 | COc1ccc2c(c1S(=O)(=O)Nc1noc3cc(Cn4cccn4)c(F)c(OC)c13)OCCC2O (stereo not drawn) [Compound 107, N-(6-((1H-Pyrazol-1-yl)methyl)-5-fluoro-4-methoxybenzo[d]isoxazol-3-yl)-4-hydroxy-7-methoxychromane-8-sulfonamide] | –
14 | < 0.5 | COc1ccc2c(c1S(=O)(=O)Nc1noc3cc(Cn4cccn4)c(F)c(OC)c13)OCCN2 [Compound 111, N-(6-((1H-Pyrazol-1-yl)methyl)-5-fluoro-4-methoxybenzo[d]isoxazol-3-yl)-7-methoxy-3,4-dihydro-2H-benzo[b][1,4]oxazine-8-sulfonamide] | –
